39 molecules from patent US10596171B2, “Cap-dependent endonuclease inhibitors” (priority 2018, dated 2020) can be followed below.

This test relates to influenza B virus. The test is described as follows: microbe, parasite or virus in culture. The format is cell-based. To be noted: MDCK, 72 h, read-out: EC50 (reduce virus-induced CPE by 50%).
Turning to `O=C1c2c(O)c(=O)ccn2N(C2c3ccccc3SCc3c2ccc(F)c3F)CC12CC2` (stereo not drawn) [Compound 2], the EC50 (usually the concentration that produces a half-maximal response) is less than 100 nM. For `CCOC(=O)C1CC12CN(C1c3ccccc3SCc3c1ccc(F)c3F)n1ccc(=O)c(O)c1C2=O` (stereo not drawn) [Compound 32], the EC50 fell in the range of 100 to 1000 nM.

Consider `O=C1c2c(O)c(=O)ccn2N(C2c3ccccc3SCc3c2ccc(F)c3F)CC12CC2COCc1ccccc1` (stereo not drawn) [Compound 34], for which the EC50 was 100 to 1000 nM. With `Cc1cccc2c1SCc1c(F)cccc1C2N1CC2(CC2)C(=O)c2c(O)c(=O)ccn21` (stereo not drawn) [Compound 10] the figure was 100 to 1000 nM. Regarding `Cc1cccc2c1SCc1c(ccc(F)c1F)C2N1CC2(CC2)C(=O)c2c(O)c(=O)cc(C)n21` (stereo not drawn) [Compound 31], the EC50 was 100 to 1000 nM. The figure for `CC1CC12CN(C1c3ccc(F)c(F)c3CSc3c(F)cccc31)n1ccc(=O)c(O)c1C2=O` (stereo not drawn) [Compound 35] is less than 100 nM. The figure for `Cc1cc(=O)c(O)c2n1N(C1c3ccccc3SCc3c1ccc(F)c3F)CC1(CC1)C2=O` (stereo not drawn) [Compound 28] is 100 to 1000 nM. As for `O=C1c2c(O)c(=O)ccn2N(C2c3ccccc3SCc3c2ccc(Cl)c3F)CC12CC2` (stereo not drawn) [Compound 19], the EC50 is 100 to 1000 nM. With `O=C1c2c(O)c(=O)ccn2N(C2c3cccc(F)c3CSc3c(Cl)cccc32)CC12CC2` (stereo not drawn) [Compound 12] the figure was 100 to 1000 nM; with `Cc1cccc2c1SCc1c(ccc(F)c1F)C2N1CC2(CC2)C(=O)c2c(O)c(=O)ccn21` (stereo not drawn) [Compound 16], 100 to 1000 nM.

For `O=C1c2c(O)c(=O)ccn2N(C2c3ccccc3SCc3cccc(Br)c32)CC12CC2` (stereo not drawn) [Compound 29], the EC50 was 100 to 1000 nM. The figure for `O=C1c2c(O)c(=O)ccn2N(C2c3ccccc3CSc3c(F)cccc32)CC12CC2` (stereo not drawn) [Compound 9] is less than 100 nM; for `CC1N(C2c3ccc(F)c(F)c3CSc3c(F)cccc32)n2ccc(=O)c(O)c2C(=O)C12CC2` (stereo not drawn) [Compound 26] it is 100 to 1000 nM; for `O=C1c2c(O)c(=O)ccn2N(C2c3ccc(F)c(F)c3CSc3c(F)cccc32)CC12CC2` (stereo not drawn) [Compound 17] it is less than 100 nM. With `Cc1cccc2c1SCc1ccccc1C2N1CC2(CC2)C(=O)c2c(O)c(=O)ccn21` (stereo not drawn) [Compound 11] the figure was 100 to 1000 nM; with `CCC1CC12CN(C1c3ccccc3SCc3c1ccc(F)c3F)n1ccc(=O)c(O)c1C2=O` (stereo not drawn) [Compound 37], less than 100 nM. With `O=C1c2c(O)c(=O)ccn2N(C2c3ccc(Cl)cc3CSc3c(F)cccc32)CC12CC2` (stereo not drawn) [Compound 14] the figure was less than 100 nM; with `O=C1c2c(O)c(=O)ccn2N(C2c3ccc(F)cc3CSc3c(Cl)cccc32)CC12CC2` (stereo not drawn) [Compound 3], less than 100 nM. In the case of `O=C(O)C1CC12CN(C1c3ccccc3SCc3c1ccc(F)c3F)n1ccc(=O)c(O)c1C2=O` (stereo not drawn) [Compound 33], the EC50 fell in the range of 100 to 1000 nM.

As for `O=C1c2c(O)c(=O)ccn2N(C2c3ccc(F)cc3CSc3ccccc32)CC12CC2` (stereo not drawn) [Compound 8], the half-maximal effective concentration (EC50) is less than 100 nM. The figure for `CCC1N(C2c3ccccc3SCc3c2ccc(F)c3F)n2ccc(=O)c(O)c2C(=O)C12CC2` (stereo not drawn) [Compound 22] is 100 to 1000 nM. The figure for `O=C1c2c(O)c(=O)ccn2N(C2c3ccc(Cl)cc3CSc3ccccc32)CC12CC2` (stereo not drawn) [Compound 4] is less than 100 nM; for `[2H]c1c([2H])c([2H])c2c(c1[2H])SCc1c(ccc(F)c1F)[C@@H]2N1CC2(CC2)C(=O)c2c(O)c(=O)ccn21` [Compound 39] it is less than 100 nM; for `C=CC1N(C2c3ccccc3SCc3c2ccc(F)c3F)n2ccc(=O)c(O)c2C(=O)C12CC2` (stereo not drawn) [Compound 25] it is 100 to 1000 nM.

For the molecule `Cc1cc(=O)c(O)c2n1N(C1c3ccc(F)c(F)c3CSc3c(F)cccc31)CC1(CC1)C2=O` (stereo not drawn) [Compound 30], the EC50 was 100 to 1000 nM. As to `O=C1c2c(O)c(=O)ccn2N(C2c3ccc(F)cc3COc3c(Cl)cccc32)CC12CC2` (stereo not drawn) [Compound 15], the half-maximal effective concentration (EC50) was less than 100 nM. The figure for `O=C1c2c(O)c(=O)ccn2N(C2c3ccccc3SCc3c(F)cccc32)CC12CC2` (stereo not drawn) [Compound 1, 1-(1-Fluoro-5,11-dihydro-10-thia-dibenzo[a,d]cyclohepten-5-yl)-5-hydroxy-3,3-cyclopropyl-2,3-dihydro-1H-pyrido[1,2-b]pyridazine-4,6-dione] is 100 to 1000 nM; for `Cc1cccc2c1SCc1cc(F)ccc1C2N1CC2(CC2)C(=O)c2c(O)c(=O)ccn21` (stereo not drawn) [Compound 7] it is less than 100 nM. Turning to `COCC1CC12CN(C1c3ccccc3SCc3c1ccc(F)c3F)n1ccc(=O)c(O)c1C2=O` (stereo not drawn) [Compound 38], the EC50 is less than 100 nM. `O=C1c2c(O)c(=O)ccn2N(C2c3ccc(Cl)c(F)c3CSc3c(F)cccc32)CC12CC2` (stereo not drawn) [Compound 24]: the EC50 is less than 100 nM. With `O=C1c2c(O)c(=O)ccn2N(C2c3ccccc3CSc3c(Cl)cccc32)CC12CC2` (stereo not drawn) [Compound 13] the figure was 100 to 1000 nM; with `CC1N(C2c3ccccc3SCc3c2ccc(F)c3F)n2ccc(=O)c(O)c2C(=O)C12CC2` (stereo not drawn) [Compound 21], 100 to 1000 nM; with `Cc1cccc2c1SCc1c(ccc(F)c1F)C2N1CC2(CC2C)C(=O)c2c(O)c(=O)ccn21` (stereo not drawn) [Compound 36], 100 to 1000 nM. With `O=C1c2c(O)c(=O)ccn2N(C2c3ccc(Cl)c(F)c3CSc3c(Cl)cccc32)CC12CC2` (stereo not drawn) [Compound 23] the figure was 100 to 1000 nM. The figure for `Cc1cccc2c1SCc1cc(Cl)ccc1C2N1CC2(CC2)C(=O)c2c(O)c(=O)ccn21` (stereo not drawn) [Compound 6] is 100 to 1000 nM. Turning to `O=C1c2c(O)c(=O)ccn2N(C2c3ccc(F)cc3CSc3c(F)cccc32)CC12CC2` (stereo not drawn) [Compound 5], the EC50 is less than 100 nM. The figure for `CC1CC12CN(C1c3ccccc3SCc3c1ccc(F)c3F)n1ccc(=O)c(O)c1C2=O` (stereo not drawn) [Compound 20] is 100 to 1000 nM; for `Cc1cccc2c1SCc1c(ccc(F)c1F)C2N1C(C)C2(CC2)C(=O)c2c(O)c(=O)ccn21` (stereo not drawn) [Compound 27] it is 100 to 1000 nM; for `O=C1c2c(O)c(=O)ccn2N(C2c3ccc(F)c(F)c3CSc3c(Cl)cccc32)CC12CC2` (stereo not drawn) [Compound 18] it is 100 to 1000 nM.
